Measured values as given in patent US8247401B2, “P2X3 receptor antagonists for treatment of pain” (Merck Sharp & Dohme Corp., priority 2007, dated 2012).

biological target: T1, human P2X3 (Homo sapiens, UniProt P56373); assay: Intracellular Calcium Measurement to Assess Antagonist Affinity (FLIPR, Fluo-4); assay type: cell-based; conditions: Intracellular Calcium Measurement assay; agonist α,β-meATP at EC50
T1 construct: expressed in transfected cells
T1 sequence (P56373 1-397): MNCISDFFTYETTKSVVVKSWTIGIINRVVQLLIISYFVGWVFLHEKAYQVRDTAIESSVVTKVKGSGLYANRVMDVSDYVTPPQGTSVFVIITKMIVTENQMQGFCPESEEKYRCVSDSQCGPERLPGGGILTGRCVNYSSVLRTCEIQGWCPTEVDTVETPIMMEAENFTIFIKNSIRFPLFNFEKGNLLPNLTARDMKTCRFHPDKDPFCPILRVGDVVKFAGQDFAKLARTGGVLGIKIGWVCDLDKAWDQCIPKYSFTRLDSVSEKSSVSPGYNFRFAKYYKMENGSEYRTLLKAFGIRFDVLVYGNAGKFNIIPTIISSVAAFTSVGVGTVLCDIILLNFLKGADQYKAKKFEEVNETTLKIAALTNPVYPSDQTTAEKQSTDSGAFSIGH
Text: Generation of a Human P2X3 and P2X2/3 Stable Cell Line—Human P2X3 receptor cDNA (Accession number NM_002559) was subcloned as a 5′XhoI and 3′HindIII fragment into the expression vector pcDNA5/FRT (Invitrogen). Human P2X2 receptor cDNA (Accession number NM_174873) was subcloned as a 5′EcoRI and 3′NotI fragment into the expression vector pIRESneo2 (BD Biosciences Clontech). The human P2X3 expression construct was transfected using Lipofectamine 2000 (Invitrogen) into Flp-in—293 cells (Invitrogen) according to the manufacturer's directions. Cells positive for flp-mediated recombination of […] P2X3 were selected using 150 μg/ml hygromycin. The stable human P2X3 cell line was co-transfected with the human P2X2 expression construct using Lipofectamine 2000 as above and co-transfected cells selected using […] hygromycin and 1 mg/ml G418. The stable P2X3 cell line was propagated in DMEM, 10% FBS, 100 μg/ml hygromycin, and 100 units/ml penicillin and 100 μg/ml streptomycin, and maintained at 37° and 95% humidity. The stable P2X2/3 cell line was propagated as above with the addition of 500 μg/ml G418.
Intracellular Calcium Measurement to Assess Antagonist Affinity—A fluorescent imaging plate reader (FLIPR; Molecular Devices) was used to monitor intracellular calcium levels using the calcium-chelating dye Fluo-4 (Molecular Probes). The excitation and emission wavelengths used to monitor fluorescence were 488 nm and 530 nm, respectively. Cells expressing either human P2X3 or human P2X2/3 were plated at a density of 20,000 cells/well (20 μl/well) in 384-well black-walled plates approximately 20 hours before beginning the assay. On the day of the assay 20 μl of loading buffer (Hank's balanced salt solution, 2.5 mM CaCl2, 20 mM HEPES, 0.1% BSA, 2.5 mM probenecid, TR-40, Fluo-4, and 138 mM NMDG substituted for NaCl) is added and cells dye-loaded for 60 min in the dark at room temperature. Ten minutes prior to adding agonist, the antagonist was added in a volume of 10 μl and allowed to incubate at room temperature. During this period fluorescence data is collected at 3 sec intervals followed by 10 sec intervals. The agonist, α,β-meATP, is added at a 6× concentration ([α,β-meATP]final=EC50). Following agonist addition fluorescence was measured at 5 sec intervals and analyzed based on the increase in peak relative fluorescence units (RFU) compared to the basal fluorescence. Peak fluorescence was used to determine the inhibitory effect at each concentration of antagonist by the following equation: % Inhibition=100*(1−((RFU(drug)−RFU(control))/(RFU(DMSO only)−RFU(control)))) In vitro Electrophysiological Assay—Cells expressing human P2X3 receptors were grown to a confluence of 65-85% 20 to 32 hours prior to assay. […]

Row | IC50 | SMILES
1 | 20 nM | Cc1ccc(-c2cc(C(=O)NC(C)c3nnc[nH]3)cc(N3CCOCC3)c2)c(F)c1 (stereo in doubt) [Example 4.109, 2′-Fluoro-4′-methyl-5-morpholin-4-yl-N-[(1R)-1-(1H-1,2,4-triazol-3-yl)ethyl]biphenyl-3-carboxamide]
2 | 8 nM | Cc1ccc(-c2cc(C(=O)N[C@H](C)c3ccc(F)cn3)cc(-c3ncccc3F)c2)nc1 [Example 4.252, 3-(3-Fluoropyridin-2-yl)-N-[(1R)-1-(5-fluoropyridin-2-yl)ethyl]-5-(5-methylpyridin-2-yl)benzamide]
3 | 11 nM | Cc1ccc(-c2cc(C(=O)N[C@H](C)c3ncc(F)cc3F)cc(-c3nnc(C4CC4)n3C)c2)nc1 [Example 4.3]
4 | 26 nM | C[C@@H](NC(=O)c1cc(-c2ccc(Cl)cn2)cc(C(C)(C)O)c1)c1ccc(C(F)(F)F)[n+]([O-])c1 [Example 4.539, 3-(5-Chloropyridin-2-yl)-5-(1-hydroxy-1-methylethyl)-N-{(1R)-1-[1-oxido-6-(trifluoromethyl)pyridin-3-yl]-ethyl}benzamide]
